Patent US11046680B1, “Heteroaryl-substituted triazoles as APJ receptor agonists” (priority 2016, dated 2021)

target: human APJ receptor (Homo sapiens (Human), UniProt P35414); test: biochemical; assay type: biochemical; details: [35S]GTPγS binding, CHO membranes expressing human APJ receptor; read-out: Activity hAPJ SPA EC50 IP
Method in brief: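 Membranes of a stable CHO line carrying human APJ (pFLAG-CMV-3) were used in a GTPγS binding format; buffer GDP, MgCl2 and NaCl were optimized, and plates were read after 90 min at RT.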

human APJ receptor, sequence (P35414 whole entry): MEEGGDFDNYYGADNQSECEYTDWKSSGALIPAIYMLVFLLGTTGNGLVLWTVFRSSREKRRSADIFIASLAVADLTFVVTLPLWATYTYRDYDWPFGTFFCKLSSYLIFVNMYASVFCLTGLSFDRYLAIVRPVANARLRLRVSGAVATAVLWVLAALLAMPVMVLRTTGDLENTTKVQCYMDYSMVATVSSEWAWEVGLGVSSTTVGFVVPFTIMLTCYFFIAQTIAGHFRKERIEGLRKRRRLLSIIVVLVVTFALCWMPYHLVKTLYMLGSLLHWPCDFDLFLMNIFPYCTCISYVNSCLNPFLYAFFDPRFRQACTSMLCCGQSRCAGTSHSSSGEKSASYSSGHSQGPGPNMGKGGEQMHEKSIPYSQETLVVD

SMILES	EC50 [nM]
COc1cccc(OC)c1-n1c(NS(=O)(=O)C[C@H](OC)c2ccc(Cl)cc2S(C)(=O)=O)nnc1-c1ccn(C)n1 (mixture of isomers) [Example 305.0, (2R)-2-(4-Chloro-2-(methylsulfonyl)phenyl)-N-(4-(2,6-dimethoxyphenyl)-5-(1-methyl-1H-pyrazol-3-yl)-4H-1,2,4-triazol-3-yl)-2-methoxyethanesulfonamide and (2S)-2-(4-chloro-2-(methylsulfonyl)phenyl)-N-(4-(2,6-dimethoxyphenyl)-5-(1-methyl-1H-pyrazol-3-yl)-4H-1,2,4-triazol-3-yl)-2-methoxyethanesulfonamide]	0.44
Cn1ccc(-c2nnc(NS(=O)(=O)[C@@H]3C[C@@H](O)CN(c4ncc(F)cn4)C3)n2-c2c(F)cccc2F)n1 (single isomer, unassigned) [Example 300.0, (3R,5R)-N-(4-(2,6-difluorophenyl)-5-(1-methyl-1H-pyrazol-3-yl)-4H-1,2,4-triazol-3-yl)-1-(5-fluoro-2-pyrimidinyl)-5-hydroxy-3-piperidinesulfonamide or (3S,5R)-N-(4-(2,6-difluorophenyl)-5-(1-methyl-1H-pyrazol-3-yl)-4H-1,2,4-triazol-3-yl)-1-(5-fluoro-2-pyrimidinyl)-5-hydroxy-3-piperidinesulfonamide]	55
COc1ncnc(OC)c1-n1c(NS(=O)(=O)[C@@H](C)[C@H](C)c2ncc(Cl)cn2)nnc1-c1ccn(C)n1 [Example 294.0, (2S,3R)-3-(5-chloro-2-pyrimidinyl)-N-(4-(4,6-dimethoxy-5-pyrimidinyl)-5-(1-methyl-1H-pyrazol-3-yl)-4H-1,2,4-triazol-3-yl)-2-butanesulfonamide]	0.49
COC[C@@H](C)n1c(NS(=O)(=O)[C@@H](C)[C@H](OC)c2ncc(Cl)cn2)nnc1-c1ccn(C)n1 [Example 531.0, (1R,2S)-1-(5-chloro-2-pyrimidinyl)-1-methoxy-N-(4-((2R)-1-methoxy-2-propanyl)-5-(1-methyl-1H-pyrazol-3-yl)-4H-1,2,4-triazol-3-yl)-2-propanesulfonamide]	50
COc1cccc(OC)c1-n1c(NS(=O)(=O)[C@@H](C)[C@H](OC)c2ncc(C)cn2)nnc1-c1cscn1 [Example 342.0, (1R,2S)-N-(4-(2,6-dimethoxyphenyl)-5-(1,3-thiazol-4-yl)-4H-1,2,4-triazol-3-yl)-1-methoxy-1-(5-methyl-2-pyrimidinyl)-2-propanesulfonamide]	0.5
COc1cccc(OC)c1-n1c(NS(=O)(=O)[C@H](C)[C@H](O)c2ncc(C)cn2)nnc1-c1nc(C)cs1 (single isomer, unassigned) [Example 314.0, (1R,2R)-N-(4-(2,6-dimethoxyphenyl)-5-(4-methylthiazol-2-yl)-4H-1,2,4-triazol-3-yl)-1-hydroxy-1-(5-methylpyrimidin-2-yl)propane-2-sulfonamide or (1S,2S)-N-(4-(2,6-dimethoxyphenyl)-5-(4-methylthiazol-2-yl)-4H-1,2,4-triazol-3-yl)-1-hydroxy-1-(5-methylpyrimidin-2-yl)propane-2-sulfonamide]	14
COc1cccc(OC)c1-n1c(NS(=O)(=O)[C@@H](C)[C@H](OC)c2cnc(C)cn2)nnc1-c1ccn(C(F)F)n1 [Example 223.0, (1R,2S)-N-(5-(1-(difluoromethyl)-1H-pyrazol-3-yl)-4-(2,6-dimethoxyphenyl)-4H-1,2,4-triazol-3-yl)-1-methoxy-1-(5-methyl-2-pyrazinyl)-2-propanesulfonamide]	2.9
CO[C@H](c1ncc(Cl)cn1)[C@H](C)S(=O)(=O)Nc1nnc(-c2nn(C)c3c2CCCC3)n1C1CC1 [Example 514.0, (1R,2S)-1-(5-chloropyrimidin-2-yl)-N-(4-cyclopropyl-5-(1-methyl-4,5,6,7-tetrahydro-1H-indazol-3-yl)-4H-1,2,4-triazol-3-yl)-1-methoxypropane-2-sulfonamide]	19
COc1cccc(OC)c1-n1c(NS(=O)(=O)CCc2ccc(Cl)cc2)nnc1-c1cc(C)on1 [Example 145.0, 2-(4-chlorophenyl)-N-(4-(2,6-dimethoxyphenyl)-5-(5-methylisoxazol-3-yl)-4H-1,2,4-triazol-3-yl)ethanesulfonamide]	71
Cc1cnc([C@@H](C)[C@H](C)S(=O)(=O)Nc2nnc(-c3cnn4c3CCC4)n2-c2c(F)cccc2F)nc1 [Example 483.0, (2S,3R)-N-(4-(2,6-difluorophenyl)-5-(5,6-dihydro-4H-pyrrolo[1,2-b]pyrazol-3-yl)-4H-1,2,4-triazol-3-yl)-3-(5-methylpyrimidin-2-yl)butane-2-sulfonamide]	5.4
COc1cccc(OC)c1-n1c(NS(=O)(=O)[C@@H](C)Cc2ncc(F)cn2)nnc1-c1cccnn1 (single isomer, unassigned) [Example 33.0, (2S)-N-(4-(2,6-dimethoxyphenyl)-5-(3-pyridazinyl)-4H-1,2,4-triazol-3-yl)-1-(5-fluoro-2-pyrimidinyl)-2-propanesulfonamide or (2R)-N-(4-(2,6-dimethoxyphenyl)-5-(3-pyridazinyl)-4H-1,2,4-triazol-3-yl)-1-(5-fluoro-2-pyrimidinyl)-2-propanesulfonamide]	190
COc1cccc(OC)c1-n1c(NS(=O)(=O)[C@@H](C)[C@@H](C)c2ncc(F)cn2)nnc1-c1nc(C)cs1 (single isomer, unassigned) [Example 119.0]	4.6
O=S(=O)(Cc1ccc(Cl)cc1)Nc1nnc(-c2cccs2)n1-c1ccccc1C(F)(F)F [Example 356.0, 1-(4-Chlorophenyl)-N-(5-(thiophen-2-yl)-4-(2-(trifluoromethyl)phenyl)-4H-1,2,4-triazol-3-yl)methanesulfonamide]	> 12500
COc1cccc(OC)c1-n1c(NS(=O)(=O)[C@H](C)Cc2ncc(F)cn2)nnc1-c1ccncn1 (single isomer, unassigned) [Example 39.0, (R)-N-(4-(2,6-dimethoxyphenyl)-5-(pyrimidin-4-yl)-4H-1,2,4-triazol-3-yl)-1-(5-fluoropyrimidin-2-yl)propane-2-sulfonamide or (R)-N-(4-(2,6-dimethoxyphenyl)-5-(pyrimidin-4-yl)-4H-1,2,4-triazol-3-yl)-1-(5-fluoropyrimidin-2-yl)propane-2-sulfonamide]	230
COc1cccc(OC)c1-n1c(NS(=O)(=O)[C@H](C)Cc2ncc(F)cn2)nnc1-c1cnccn1 (single isomer, unassigned) [Example 30.0, (R)-N-(4-(2,6-dimethoxyphenyl)-5-(pyrazin-2-yl)-4H-1,2,4-triazol-3-yl)-1-(5-fluoropyrimidin-2-yl)propane-2-sulfonamide or (S)-N-(4-(2,6-dimethoxyphenyl)-5-(pyrazin-2-yl)-4H-1,2,4-triazol-3-yl)-1-(5-fluoropyrimidin-2-yl)propane-2-sulfonamide]	350
COc1cccc(OC)c1-n1c(NS(=O)(=O)[C@H](C)Cc2ncc(F)cn2)nnc1-c1ncccn1 (single isomer, unassigned) [Example 59.0, (R)-N-(4-(2,6-dimethoxyphenyl)-5-(pyrimidin-2-yl)-4H-1,2,4-triazol-3-yl)-1-(5-fluoropyrimidin-2-yl)propane-2-sulfonamide or (S)-N-(4-(2,6-dimethoxyphenyl)-5-(pyrimidin-2-yl)-4H-1,2,4-triazol-3-yl)-1-(5-fluoropyrimidin-2-yl)propane-2-sulfonamide]	110
